{
  "source": "BindingDB's records for patent US8563553",
  "about": "(Novartis, 2013)",
  "molecular_target": "Serine/threonine-protein kinase B-raf [V600E] (Homo sapiens, UniProt P15056, V600E)",
  "sequence (P15056 2-766 V600E limits assumed)": "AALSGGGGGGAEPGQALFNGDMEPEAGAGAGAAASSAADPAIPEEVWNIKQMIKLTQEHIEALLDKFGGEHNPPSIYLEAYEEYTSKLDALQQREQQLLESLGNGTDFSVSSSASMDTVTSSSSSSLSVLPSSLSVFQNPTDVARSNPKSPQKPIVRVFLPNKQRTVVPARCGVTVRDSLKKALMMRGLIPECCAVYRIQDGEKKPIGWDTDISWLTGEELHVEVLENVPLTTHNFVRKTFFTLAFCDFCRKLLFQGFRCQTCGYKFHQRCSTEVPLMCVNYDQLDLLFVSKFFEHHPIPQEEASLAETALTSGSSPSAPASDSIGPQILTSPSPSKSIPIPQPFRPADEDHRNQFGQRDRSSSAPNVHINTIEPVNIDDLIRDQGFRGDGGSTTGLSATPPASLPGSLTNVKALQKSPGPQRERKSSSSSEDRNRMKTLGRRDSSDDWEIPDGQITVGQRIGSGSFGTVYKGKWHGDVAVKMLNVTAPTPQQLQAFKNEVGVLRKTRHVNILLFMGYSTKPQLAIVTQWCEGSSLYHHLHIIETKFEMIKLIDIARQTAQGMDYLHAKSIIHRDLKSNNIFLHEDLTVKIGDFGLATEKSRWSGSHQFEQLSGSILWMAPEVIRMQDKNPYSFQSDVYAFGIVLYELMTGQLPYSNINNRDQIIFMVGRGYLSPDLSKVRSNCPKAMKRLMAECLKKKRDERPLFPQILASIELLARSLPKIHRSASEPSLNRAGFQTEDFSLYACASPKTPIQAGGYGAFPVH",
  "assay": "Raf/Mek Amplified Luminescence Proximity Homogeneous Assay",
  "details": "pH 7.5",
  "from_the_text": "Raf/Mek amplified luminescence proximity homogeneous assay.",
  "data": [
    {"smiles": "COC(=O)N[C@@H](C)CNc1nccc(-c2nc(C(C)(C)C)[nH]c2-c2cc(Cl)cc(NS(=O)(=O)C(F)(F)F)c2)n1", "note": "[US8563553, 52]", "values": [
      {"measurement": "IC50", "value": 235, "unit": "nM"}
    ]}
  ]
}
